In patent publication US6545009B1, “Retinoid-related receptor function regulating agent” (Takeda Chemical Industries, Ltd., priority 1998, dated 2003):

SMILES | melting point [°C]
COC(=O)c1ccc(-c2nc(-c3cccc(Cl)c3)cs2)cc1 [Example 43, methyl 4-[4-(3-chlorophenyl)-2-thiazolyl]benzoate] | 150 to 151
COC(=O)c1cccc(-c2nc(-c3ccc(F)cc3F)cs2)c1 [Example 46, methyl 3-[4-(2,4-difluorophenyl)-2-thiazolyl]benzoate] | 121 to 122
COC(=O)c1cccc(-c2nc(-c3ccc(OC)cc3)cs2)c1 [Example 47, methyl 3-[4-(4-methoxyphenyl)-2-thiazolyl]benzoate] | 108 to 109
CCOC(=O)c1cccc(-c2nc(-c3cc(C)oc3C)cs2)c1 [Example 49, ethyl 3-[4-(2,5-dimethyl-3-furyl)-2-thiazolyl]benzoate] | 100 to 101
COC(=O)c1cccc(-c2nc(-c3cccc(OC(F)(F)F)c3)cs2)c1 [Example 50, methyl 3-[4-(3-trifluoromethoxyphenyl)-2-thiazolyl]benzoate] | 84 to 85
O=C(O)c1ccc(-c2csc(-c3cccnc3)n2)cc1 [Example 54, 4-[2-(3-pyridyl)-4-thiazolyl]benzoic acid] | > 300
Cc1ccc(-c2csc(-c3ccc(C(=O)O)cc3)n2)cc1 [Example 56, 4-[4-(4-methylphenyl)-2-thiazolyl]benzoic acid] | 289 to 290
O=C(O)c1ccc(-c2csc(-c3ccncc3)n2)cc1 [Example 59, 4-[2-(4-pyridyl)-4-thiazolyl]benzoic acid] | > 300
O=C(O)c1ccc(-c2nc(-c3ccccc3C(F)(F)F)cs2)cc1 [Example 60, 4-[4-(2-trifluoromethylphenyl)-2-thiazolyl]benzoic acid] | 225 to 227
O=C(O)c1ccc(-c2nc(-c3ccccn3)cs2)cc1 [Example 61, 4-[4-(2-pyridyl)-2-thiazolyl]benzoic acid] | > 300
O=C(O)c1ccc(-c2nc(-c3cccc(OC(F)(F)F)c3)cs2)cc1 [Example 63, 4-[4-(3-trifluoromethoxylphenyl)-2-thiazolyl]benzoic acid] | 233 to 234
O=C(O)c1ccc(-c2nc(-c3c(F)c(F)c(F)c(F)c3F)cs2)cc1 [Example 65, 4-[4-(2,3,4,5,6-pentafluorophenyl)-2-thiazolyl]benzoic acid] | 273 to 274
O=C(O)c1cccc(-c2nc(-c3cccc(C(F)(F)F)c3)cs2)c1 [Example 68, 3-[4-(3-trifluoromethylphenyl)-2-thiazolyl]benzoic acid] | 229 to 230
O=C(O)c1cccc(-c2nc(-c3ccc(F)cc3F)cs2)c1 [Example 69, 3-[4-(2,4-difluorophenyl)-2-thiazolyl]benzoic acid] | 255 to 256
COc1ccc(-c2csc(-c3cccc(C(=O)O)c3)n2)cc1 [Example 70, 3-[4-(4-methoxyphenyl)-2-thiazolyl]benzoic acid] | 236 to 238
CCOC(=O)c1cccc(-c2nc(-c3ccc(C)c(C)c3)cs2)c1 [Example 74, ethyl 3-[4-(3,4-dimethylphenyl)-2-thiazolyl]benzoate] | 114 to 115

SMILES | melting point [°C]
COC(=O)c1ccc(-c2nc(-c3cc(C)oc3C)cs2)cc1 [Example 77, methyl 4-[4-(2,5-dimethyl-3-furyl)-2-thiazolyl]benzoate] | 103 to 105
CCOC(=O)c1cccc(-c2nc(-c3cc(C)sc3C)cs2)c1 [Example 78, ethyl 3-[4-(2,5-dimethyl-3-thienyl)-2-thiazolyl]benzoate] | 115 to 116
CCOC(=O)c1cccc(-c2nc(-c3ccc(OCC)cc3)cs2)c1 [Example 82, ethyl 3-[4-(4-ethoxyphenyl)-2-thiazolyl]benzoate] | 108 to 110
CCOc1ccc(-c2csc(-c3cccc(C(=O)OC)c3)n2)cc1 [Example 83, methyl 3-[4-(4-ethoxyphenyl)-2-thiazolyl]benzoate] | 192 to 193
COC(=O)c1ccc(-c2nc(-c3ccc(C(C)(C)C)cc3)cs2)cc1 [Example 85, methyl 4-[4-(4-t-butylphenyl)-2-thiazolyl]benzoate] | 154 to 155
CCOC(=O)c1cccc(-c2nc(-c3ccc(C(C)C)cc3)cs2)c1 [Example 86, ethyl 3-[4-(4-isopropylphenyl)-2-thiazolyl]benzoate] | 91 to 92
Cc1ccc(-c2csc(-c3ccc(C(=O)O)cc3)n2)cc1C [Example 90, 4-[4-(3,4-dimethylphenyl)-2-thiazolyl]benzoic acid] | 261 to 262
Cc1cc(-c2csc(-c3ccc(C(=O)O)cc3)n2)c(C)o1 [Example 91, 4-[4-(2,5-dimethyl-3-furyl)-2-thiazolyl]benzoic acid] | 264 to 265
Cc1cc(-c2csc(-c3cccc(C(=O)O)c3)n2)c(C)s1 [Example 92, 3-[4-(2,5-dimethyl-3-thienyl)-2-thiazolyl]benzoic acid] | 155 to 156
Cc1cc(-c2csc(-c3ccc(C(=O)O)cc3)n2)c(C)s1 [Example 93, 4-[4-(2,5-dimethyl-3-thienyl)-2-thiazolyl]benzoic acid] | 239 to 240
O=C(O)c1ccc(-c2nc(-c3cc(Cl)sc3Cl)cs2)cc1 [Example 94, 4-[4-(2,5-dichloro-3-thienyl)-2-thiazolyl]benzoic acid] | 266 to 267
CC(C)(C)c1ccc(-c2csc(-c3cccc(C(=O)O)c3)n2)cc1 [Example 98, 3-[4-(4-t-butylphenyl)-2-thiazolyl]benzoic acid] | 250 to 251
CCCCc1ccc(-c2csc(-c3ccc(C(=O)O)cc3)n2)cc1 [Example 99, 4-[4-(4-butylphenyl)-2-thiazolyl]benzoic acid] | 263 to 265
CCOC(=O)c1ccc(-c2csc(-c3ccccc3)n2)cc1 [Example 102, ethyl 4-(2-phenyl-4-thiazolyl]benzoate] | 72 to 73
CCOC(=O)c1ccc(-c2csc(-c3ccc(Cl)cc3)n2)cc1 [Example 103, ethyl 4-[2-(4-chlorophenyl)-4-thiazolyl)benzoate] | 105 to 106

More lines, now with the values ahead:

melting point [°C] | SMILES
138 to 139 | COC(=O)c1ccc(-c2nc(-c3ccc(OC(F)(F)F)cc3)cs2)cc1 [Example 41, methyl 4-[4-(4-trifluoromethoxyphenyl)-2-thiazolyl]benzoate]
141 to 142 | COC(=O)c1ccc(-c2nc(-c3c(F)c(F)c(F)c(F)c3F)cs2)cc1 [Example 42, methyl 4-[4-(2,3,4,5,6-pentafluorophenyl)-2-thiazolyl]benzoate]
142 to 143 | COC(=O)c1cccc(-c2nc(-c3ccc(C(F)(F)F)cc3)cs2)c1 [Example 44, methyl 3-[4-(4-trifluoromethylphenyl)-2-thiazolyl]benzoate]
105 to 106 | COC(=O)c1cccc(-c2nc(-c3cccc(C(F)(F)F)c3)cs2)c1 [Example 45, methyl 3-[4-(3-trifluoromethylphenyl)-2-thiazolyl]benzoate]
283 to 284 | O=C(O)c1ccc(-c2nc(-c3ccc(Cl)s3)cs2)cc1 [Example 53, 4-[4-(5-chloro-2-thienyl)-2-thiazolyl]benzoic acid]
303 to 304 | O=C(O)c1ccc(-c2nc(-c3cccnc3)cs2)cc1 [Example 57, 4-[4-(3-pyridyl)-2-thiazolyl]benzoic acid]
> 300 | O=C(O)c1ccc(-c2nc(-c3ccncc3)cs2)cc1 [Example 58, 4-[4-(4-pyridyl)-2-thiazolyl]benzoic acid]
230 to 231 | O=C(O)c1cccc(-c2nc(-c3ccc(C(F)(F)F)cc3)cs2)c1 [Example 67, 3-[4-(4-trifluoromethylphenyl)-2-thiazolyl]benzoic acid]
255 to 256 | O=C(O)c1cccc(-c2nc(-c3ccc(F)c(F)c3)cs2)c1 [Example 71, 3-[4-(3,4-difluorophenyl)-2-thiazolyl]benzoic acid]
206 to 207 | COC(=O)c1ccc(-c2nc(-c3ccc(Br)cc3)cs2)cc1 [Example 75, methyl 4-[4-(4-bromophenyl)-2-thiazolyl]benzoate]
147 to 148 | CCOC(=O)c1cccc(-c2nc(-c3ccc(C)c(C)c3)cs2)c1 [Example 76, ethyl 3-[4-(3,4-dimethylphenyl)-2-thiazolyl]-benzoate]
109 to 110 | COC(=O)c1ccc(-c2nc(-c3cc(C)sc3C)cs2)cc1 [Example 79, methyl 4-[4-(2,5-dimethyl-3-thienyl)-2-thiazolyl]benzoate]
149 to 150 | COC(=O)c1ccc(-c2nc(-c3cc(Cl)sc3Cl)cs2)cc1 [Example 80, methyl 4-[4-(2,5-dichloro-3-thienyl)-2-thiazolyl]benzoate]
125 to 126 | CCOC(=O)c1cccc(-c2nc(-c3cc(Cl)sc3Cl)cs2)c1 [Example 81, ethyl 3-[4-(2,5-dichloro-3-thienyl)-2-thiazolyl]benzoate]
96 to 97 | CCOC(=O)c1cccc(-c2nc(-c3ccc(C(C)(C)C)cc3)cs2)c1 [Example 84, ethyl 3-[4-(4-t-butylphenyl)-2-thiazolyl]benzoate]
134 to 135 | COC(=O)c1ccc(-c2nc(-c3ccc(C(C)C)cc3)cs2)cc1 [Example 87, methyl 4-[4-(4-isopropylphenyl)-2-thiazolyl]benzoate]
235 to 236 | Cc1ccc(-c2csc(-c3cccc(C(=O)O)c3)n2)cc1C [Example 88, 3-[4-(3,4-dimethylphenyl)-2-thiazolyl]benzoic acid]
> 300 | O=C(O)c1ccc(-c2nc(-c3ccc(Br)cc3)cs2)cc1 [Example 89, 4-[4-(4-bromophenyl)-2-thiazolyl]benzoic acid]
257 to 258 | CC(C)c1ccc(-c2csc(-c3ccc(C(=O)O)cc3)n2)cc1 [Example 101, 4-[4-(4-isopropylphenyl)-2-thiazolyl]benzoic acid]
163 to 164 | CCOC(=O)c1ccc(-c2csc(-c3ccc(C(F)(F)F)cc3)n2)cc1 [Example 104, ethyl 4-[2-(4-trifluoromethylphenyl)-4-thiazolyl)benzoate]
